pIC50: −log10 of the molar value. Like-named read-outs stand apart in the source and are kept apart here.
What was measured:
THP-1 cells = assay: TNFα generation assay; format: cell-based, human; conditions: Table 22, read-out: IC50 in TNFα generation assay
Method in brief: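 THP-1 cells differentiated to macrophage-like cells with 10 ng/ml IFN-γ for 2 days, preincubated with compound 30 min at room temperature, then cultured 7 h on plates coated with human IgG (10 μg/ml). Secreted TNFα measured by ELISA or AlphaLISA.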

[1] = molecular target: T1, glutathione S-transferase (GST)-fused full-length human Syk protein (Homo sapiens, UniProt P43405); assay: Syk enzyme assay; format: biochemical; conditions: Syk enzyme assay, Test Example 1; read-out: IC50 of Syk-inhibitory activity
T1 construct: (GST)-fused full-length human Syk protein; GST (glutathione S-transferase); purchased Carna Biosciences
Method in brief: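 IC50 values come from a time-resolved FRET readout (615 and 665 nm) of substrate phosphorylation, measured after an EDTA stop and 1 h antibody binding. The kinase reaction ran 40 min at room temperature with 27 μM ATP and 0.4 μM biotin-peptide, following a 15 min compound preincubation with baculovirus-made GST-full-length human Syk.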

[2] = Homo sapiens, THP-1, THP-1 cells

Row | SMILES | pIC50 (THP-1 cells; [2]) | pIC50 [1] | pIC50 (THP-1 cells; THP-1 cells)
1 | COc1cc(Nc2nc(N[C@H](C)CN)c(F)cc2C(N)=O)cc(OC)c1 [Example 006-100, (R)-6-((1-aminopopan-2-yl)amino)-2-((3,5-dimethoxyphenyl)amino)-5-fluoronicotinamide] | 6.89 to 7.19 | > 8.00 | –
2 | NC(=O)c1cc(F)c(NC2CCCCC2N)nc1Nc1ccnc(N2CCCC2=O)c1 (centres unmarked) [Example 002-054] | 6.89 to 7.19 | 7.30 to 8.00 | –
3 | NC(=O)c1cc(F)c(N[C@@H]2CCCC[C@@H]2N)nc1Nc1ccccc1 (relative stereo) [Example 004-129, 6-(cis-2-aminocyclohexylamino)-5-fluoro-2-(phenylamino)nicotinamide] | 6.89 to 7.19 | > 8.00 | –
4 | CCn1nc(C(C)C)c2cc(Nc3nc(N[C@H](CC4CC4)[C@H](C)N)c(F)cc3C(N)=O)ccc21 [Example 006-465, 6-(((2R,3S)-3-amino-1-cyclopropylbutan-2-yl)amino)-2-((1-ethyl-3-isopropyl-1H-indazol-5-yl)amino)-5-fluoronicotinamide] | 6.70 to 6.89 | > 8.00 | –
5 | CCC[C@@H](Nc1nc(Nc2ccnc(-n3cncn3)c2)c(C(N)=O)cc1F)[C@H](C)N [Example 006-300, 2-((2-(1H-1,2,4-triazol-1-yl)pyridin-4-yl)amino)-6-(((2S,3R)-2-aminohexan-3-yl)amino)-5-fluoronicotinamide] | > 7.19 | > 8.00 | –
6 | CC(C)C[C@H](CN)Nc1nc(Nc2ccc3c(cnn3CCF)c2)c(C(N)=O)cc1F [Example 006-415, (R)-6-((1-amino-4-methylpentan-2-yl)amino)-5-fluoro-2-((1-(2-fluoroethyl)-1H-indazol-5-yl)amino)nicotinamide] | 6.89 to 7.19 | > 8.00 | –
7 | CCC[C@@H](Nc1nc(Nc2cncc(-n3nccn3)c2)c(C(N)=O)cc1F)[C@H](C)N [Example 006-298, 2-((5-(2H-1,2,3-triazol-2-yl)pyridin-3-yl)amino)-6-(((2S,3R)-2-aminohexan-3-yl)amino)-5-fluoronicotinamide] | > 7.19 | > 8.00 | –
8 | CC[C@@H](Nc1nc(Nc2ccnc(-c3ccc(OC)cc3)c2)c(C(N)=O)cc1F)[C@H](C)N [Example 006-331, 6-(((2S,3R)-2-aminopentan-3-yl)amino)-5-fluoro-2-((2-(4-methoxyphenyl)pyridin-4-yl)amino)nicotinamide] | 6.89 to 7.19 | > 8.00 | –
9 | Cc1ncc(Nc2nc(N[C@H](C3CC3)[C@H](C)N)c(F)cc2C(N)=O)cc1-n1nccn1 [Example 006-483, 6-(((1R,2S)-2-amino-1-cyclopropylpropyl)amino)-5-fluoro-2-((6-methyl-5-(2H-1,2,3-triazol-2-yl)pyridin-3-yl)amino)nicotinamide] | > 7.19 | > 8.00 | –
10 | CC[C@@H](Nc1nc(Nc2ccc3cccnc3c2)c(C(N)=O)cc1F)[C@H](C)N [Example 006-261, 6-(((2S,3R)-2-aminopentan-3-yl)amino)-5-fluoro-2-((quinolin-7-yl)amino)nicotinamide] | > 7.19 | > 8.00 | –
11 | NC(=O)c1cc(F)c(NCC2(N)CC2)nc1Nc1ccc2ncccc2c1 [Example 014-014, 6-((1-aminocyclopropylmethyl)amino)-5-fluoro-2-((quinolin-6-yl)amino)nicotinamide] | 6.70 to 6.89 | > 8.00 | –
12 | NC(=O)c1cc(F)c(N[C@@H]2CCCC[C@@H]2N)nc1Nc1cnc2cc(N)ccc2c1 (relative stereo) [Example 004-125, 6-(cis-2-aminocyclohexylamino)-2-((7-aminoquinolin-3-yl)amino)-5-fluoronicotinamide] | 6.89 to 7.19 | > 8.00 | –
13 | CCOc1cc(Nc2nc(N[C@H](C)[C@H](C)N)c(F)cc2C(N)=O)ccn1 (racemic) [Example 006-213, 6-(((2R,3S)-3-aminobutan-2-yl)amino)-2-((2-ethoxypyridin-4-yl)amino)-5-fluoronicotinamide 6-(((2S,3R)-3-aminobutan-2-yl)amino)-2-((2-ethoxypyridin-4-yl)amino)-5-fluoronicotinamide] | 6.70 to 6.89 | > 8.00 | –
14 | C[C@H](N)[C@@H](CC1CC1)Nc1nc(Nc2ccc3c(cnn3CCF)c2)c(C(N)=O)cc1F [Example 006-420, 6-(((2R,3S)-3-amino-1-cyclopropylbutan-2-yl)amino)-5-fluoro-2-((1-(2-fluoroethyl)-1H-indazol-5-yl)amino)nicotinamide] | 6.89 to 7.19 | > 8.00 | –
15 | CCCc1nn(CC(F)F)c2ccc(Nc3nc(N[C@@H]4CCCC[C@@H]4N)c(F)cc3C(N)=O)cc12 [Example 006-460, 6-(((1R,2S)-2-aminocyclohexyl)amino)-2-((1-(2,2-difluoroethyl)-3-propyl-1H-indazol-5-yl)amino)-5-fluoronicotinamide] | 6.89 to 7.19 | > 8.00 | –
16 | NC(=O)c1cc(F)c(NC2CCCCC2N)nc1Nc1ccc2c(c1)c(F)nn2CCF (centres unmarked) [Example 002-204] | 6.89 to 7.19 | > 8.00 | –

Row | SMILES | pIC50 (THP-1 cells; [2]) | pIC50 [1] | pIC50 (THP-1 cells; THP-1 cells)
17 | NC(=O)c1cc(F)c(NC2CCCCC2N)nc1Nc1cncc2ccccc12 (centres unmarked) [Example 010-001] | > 7.19 | > 8.00 | –
18 | COc1cc(Nc2nc(N[C@@H]3CCCC[C@@H]3N)c(F)cc2C(N)=O)cc(OC)n1 [Example 006-114, 6-(((1R,2S)-2-aminocyclohexyl)amino)-2-((2,6-dimethoxypyridin-4-yl)amino)-5-fluoronicotinamide] | 6.89 to 7.19 | > 8.00 | –
19 | CCC[C@@H](Nc1nc(Nc2ccc3c(cnn3C)c2)c(C(N)=O)cc1F)[C@H](C)N [Example 006-236, 6-(((2S,3R)-2-aminohexan-3-yl)amino)-5-fluoro-2-((1-methyl-1H-indazol-5-yl)amino)nicotinamide] | > 7.19 | > 8.00 | –
20 | COCCOc1ncc(Nc2nc(N[C@@H]3CCCC[C@@H]3N)c(F)cc2C(N)=O)cc1F [Example 006-552, 6-(((1R,2S)-2-aminocyclohexyl)amino)-5-fluoro-2-((5-fluoro-6-(2-methoxyethoxy)pyridin-3-yl)amino)nicotinamide] | 6.89 to 7.19 | 7.30 to 8.00 | –
21 | Cc1ncc(Nc2nc(N[C@H](CC(C)C)[C@H](C)N)c(F)cc2C(N)=O)cc1-n1nccn1 [Example 006-386, 6-(((2S,3R)-2-amino-5-methylhexan-3-yl)amino)-5-fluoro-2-((6-methyl-5-(2H-1,2,3-triazol-2-yl)pyridin-3-yl)amino)nicotinamide] | > 7.19 | > 8.00 | –
22 | Cn1ccc2cc(Nc3nc(N[C@@H]4CCCC[C@@H]4N)c(F)cc3C(N)=O)cnc21 [Example 004-012] | > 7.19 | > 8.00 | –
23 | COc1ccc2cc(Nc3nc(N[C@H](CC(C)C)[C@H](C)N)c(F)cc3C(N)=O)cnc2c1 [Example 006-206, 6-(((2S,3R)-2-amino-5-methylhexan-3-yl)amino)-5-fluoro-2-((7-methoxyquinolin-3-yl)amino)nicotinamide] | 6.70 to 6.89 | > 8.00 | –
24 | COc1cccc(-c2cncc(Nc3nc(N[C@@H](CN)CC(C)C)c(F)cc3C(N)=O)c2)c1 [Example 006-317, (R)-6-((1-amino-4-methylpentan-2-yl)amino)-5-fluoro-2-((5-(3-methoxyphenyl)pyridin-3-yl)amino)nicotinamide] | 6.70 to 6.89 | > 8.00 | –
25 | CCCC[C@H](CN)Nc1nc(Nc2ccc3c(cnn3CCOC)c2)c(C(N)=O)cc1F [Example 006-338, (R)-6-((1-aminohexan-2-yl)amino)-5-fluoro-2-((1-(2-methoxyethyl)-1H-indazol-5-yl)amino)nicotinamide] | 6.89 to 7.19 | 7.30 to 8.00 | –
26 | NC[C@@H](CC1CC1)Nc1nc(Nc2ccc3ncccc3c2)c(C(N)=O)cc1F [Example 006-214, (R)-6-((1-amino-3-cyclopropylpropan-2-yl)amino)-5-fluoro-2-((quinolin-6-yl)amino)nicotinamide] | 6.89 to 7.19 | > 8.00 | –
27 | CCCC[C@@H](Nc1nc(Nc2ccc3c(cnn3CCF)c2)c(C(N)=O)cc1F)[C@H](C)N [Example 006-418, 6-(((2S,3R)-2-aminoheptan-3-yl)amino)-5-fluoro-2-((1-(2-fluoroethyl)-1H-indazol-5-yl)amino)nicotinamide] | 6.89 to 7.19 | > 8.00 | –
28 | COCCn1ncc2cc(Nc3nc(N[C@@H]4CCCC[C@@H]4N)c(F)cc3C(N)=O)ccc21 [Example 004-172, 6-((1R,2S)-2-aminocyclohexylamino)-5-fluoro-2-((1-(2-methoxyethyl)-1H-indazol-5-yl)-amino)nicotinamide] | – | > 8.00 | 6.89 to 7.19
29 | COCCn1nc(C)c2cc(Nc3nc(N[C@H](CC4CC4)[C@H](C)N)c(F)cc3C(N)=O)ccc21 [Example 006-444, 6-(((2R,3S)-3-amino-1-cyclopropylbutan-2-yl)amino)-5-fluoro-2-((1-(2-methoxyethyl)-3-methyl-1H-indazol-5-yl)amino)nicotinamide] | 6.89 to 7.19 | 7.00 to 7.30 | –
30 | COCCOc1ncc(Nc2nc(N[C@@H]3CCCC[C@@H]3N)c(F)cc2C(N)=O)cc1C [Example 006-498, 6-(((1R,2S)-2-aminocyclohexyl)amino)-5-fluoro-2-((6-(2-methoxyethoxy)-5-methylpyridin-3-yl)amino)nicotinamide] | 6.89 to 7.19 | > 8.00 | –
31 | Cc1nn(CC(F)F)c2ccc(Nc3nc(N[C@H](C4CC4)[C@H](C)N)c(F)cc3C(N)=O)cc12 [Example 006-584, 6-(((1R,2S)-2-amino-1-cyclopropylpropyl)amino)-2-((1-(2,2-difluoroethyl)-3-methyl-1H-indazol-5-yl)amino)-5-fluoronicotinamide] | 6.89 to 7.19 | > 8.00 | –

— patent US8895585B2, “Nicotinamide derivative or salt thereof” (FUJIFILM Corporation, priority 2010, dated 2014)
